In patent US10086039B2, “Lamin A, an activator of longevity/anti-aging SIRT1 protein” (THE UNIVERSITY OF HONG KONG, priority 2012, dated 2018):

Legend:
[1] = target: T1, rhSIRT1 association with NM (Homo sapiens, UniProt Q96EB6); assay: Association of rhSIRT1 with insoluble NM fraction in test tube; type: binding; conditions: NM from wild-type and Zmpste24−/− cells, resveratrol 10 μM
T1 sequence (Q96EB6 1-747): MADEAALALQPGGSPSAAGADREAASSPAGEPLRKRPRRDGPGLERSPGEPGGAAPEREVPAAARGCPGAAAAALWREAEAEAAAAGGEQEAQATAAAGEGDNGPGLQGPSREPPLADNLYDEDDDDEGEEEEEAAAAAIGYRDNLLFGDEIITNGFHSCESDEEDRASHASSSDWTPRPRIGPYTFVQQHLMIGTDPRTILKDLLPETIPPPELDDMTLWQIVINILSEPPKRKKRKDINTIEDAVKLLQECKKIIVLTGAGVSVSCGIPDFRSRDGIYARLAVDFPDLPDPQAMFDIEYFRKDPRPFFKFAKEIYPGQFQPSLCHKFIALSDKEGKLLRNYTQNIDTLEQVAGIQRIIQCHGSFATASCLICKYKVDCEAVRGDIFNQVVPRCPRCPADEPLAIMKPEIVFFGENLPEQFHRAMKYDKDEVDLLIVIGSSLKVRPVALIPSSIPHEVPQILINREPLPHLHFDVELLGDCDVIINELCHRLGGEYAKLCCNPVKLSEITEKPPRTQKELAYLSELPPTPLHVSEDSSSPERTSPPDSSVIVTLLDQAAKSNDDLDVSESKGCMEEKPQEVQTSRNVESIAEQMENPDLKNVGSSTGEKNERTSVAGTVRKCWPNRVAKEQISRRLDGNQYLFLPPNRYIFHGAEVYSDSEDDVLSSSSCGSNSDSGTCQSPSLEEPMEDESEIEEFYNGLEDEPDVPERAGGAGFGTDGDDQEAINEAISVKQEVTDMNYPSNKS

Zmpste24−/− BMSCs = assay: BMSC colony-forming assay in vitro; type: cell-based, mouse
Text: Bone marrow stromal cells were isolated and cultured according to modified protocol (Enumeration and Expansion of Mouse Mesenchymal Progenitor Cells Using MESENCUILT®, Stemcell Technologies, Canada). Briefly, bone marrow cells were flushed out from femurs and tibias with α-MEM (Invitrogen, Carlsbad, Calif., USA) supplemented with 20% FBS, and plated in petri dishes. Non-adherent cells were removed on day 3 and medium was replaced every 3 days. BMSC colonies were fixed with methanol and stained with crystal violet solution on the indicated day. For magnetic enrichment, CD11b-positive population was removed using a MIDIMACS™ magnetic cell sorting kit (Miltenyi Biotec, Bergisch Gladbach, Germany), following the manufacturer's instructions. Colonies containing more than 50 cells were counted. BMSC colony forming efficiency was calculated as number of colonies formed by […] bone marrow nucleated cells.

Zmpste24−/− mice = assay: Survival and body weight of Zmpste24−/− mice treated via drinking water; type: in vivo, mouse; conditions: resveratrol 20 μg/ml in drinking water
Experimental: Zmpste24^−/− mice have been described previously (Pendas et al., 2002). Mouse experimentation was performed in accordance with the guidelines of the Committee on the Use of Live Animals in Teaching and Research (CULATR) at the University of Hong Kong. New-born Zmpste24^−/− mice and wild-type controls were fed with resveratrol (20 μg/ml) or N-acetyl Cysteine (1 mg/ml) in drinking water. The survival of resveratrol-treated, NAC-treated, or vehicle-treated Zmpste24^−/− mice was recorded and their body weight was monitored weekly. The trabecular bone organization and bone mineral density were determined by micro-CT. The survival rate was analyzed by Kaplan-Meier method and statistical comparison was performed by Log-rank (Mantel-Cox) Test.
Briefly, resveratrol was supplemented at a concentration of 20 μg/ml in drinking water. Four months after treatment, BMSCs were collected for examination and comparison between resveratrol-treated and vehicle-treated Zmpste24^−/− mice.

AMPK = conditions: cited from earlier work
SIRT1 = target: T2, SIRT1 (Homo sapiens, UniProt Q96EB6); assay: SIRT1 deacetylation assay on native full-length acetyl FLAG-p53 (Western blotting, anti-acetyl lysine); type: biochemical; design: purchased Biomol (Hamburg, Germany)
T2 sequence (Q96EB6 1-747): T1 sequence (Q96EB6 1-747)
Experimental: SIRT1 deacetylation assay on fluorophore-conjugated synthetic p53 peptide was performed with SIRT1 Fluorimetric Drug Discovery Kit (Biomol, Hamburg, Germany) according to the manufactory's instruction. Cells were fractionated as described above except that protease inhibitors were NOT included and the nuclear matrix fraction was suspended into the assay buffer provided by the supplier. Different cell fractions or recombinant human lamin A (rhLamin A, Diatheva, Italy) were added in the reaction mix of SIRT1 Fluorimetric Drug Discovery Kit, incubated for 20 min at 37° C., and then the reaction was stopped and fluorescent signal was detected. SIRT1 deacetylase activity on native target was assayed using SIRT1 assay Kit from Sigma (USA). Constructs encoding FLAG-p53 and HA-p300 were co-transfected into HEK293 cells; FLAG-p53 was immunoprecipitated by anti-FLAG M2 Agarose (Sigma) followed by elution with FLAG peptide (Sigma). Purified acetyl FLAG-p53 was incubated with recombinant human SIRT1 (rhSIRT1) and NAD+ for 30 min at 37° C., in the presence or absence of rhLamin A or resveratrol. The acetylation level of FLAG-p53 was determined by Western blotting with pan anti acetyl lysine antibodies.
To further test the effect of rhLamin A on the native target of SIRT1, acetyl p53 was purified by anti-FLAG immunoprecipitation in HEK293 cells ectopically expressing FLAG-p53 and p300, and SIRT1 deacetylation assay was performed as described in Materials and Methods.

Oc1ccc(C=Cc2cc(O)cc(O)c2)cc1 [resveratrol]
association of rhSIRT1 with NM [1]: enhanced the association | rescue effect on colony-forming capacity (Zmpste24−/− BMSCs; Zmpste24−/− BMSCs with SIRT1 knocked down): attenuated | colony-forming capacity (Zmpste24−/− BMSCs; Zmpste24−/− BMSCs, 2 μM and 10 μM, dose-dependent): enhanced the colony-forming capacity | animals still alive (Zmpste24−/− mice; by 26 weeks after birth): ~60% | body weight loss (Zmpste24−/− mice; compared to vehicle-treated controls): significantly slowed down | median survival (Zmpste24−/− mice; vehicle 20 weeks): 27 weeks | maximum lifespan (mean lifespan of the longest-lived 10% of the animals) (Zmpste24−/− mice; vehicle 27.5 weeks): 33.5 weeks | doses activating AMPK independent of SIRT1 (AMPK; high doses): ≥ 50 µM | doses activating AMPK in a SIRT1-dependent manner (AMPK; low doses): ≤ 25 µM | activation of SIRT1 deacetylase activity, native full-length FLAG-p53 as substrate (SIRT1; in the presence of rhLamin A): activated SIRT1 in a lamin A dose-dependent manner | activation of SIRT1 deacetylase activity, native full-length FLAG-p53 as substrate (SIRT1; without rhLamin A): does not directly activate
